# According to ChEMBL document CHEMBL1128268, “Tryptophan-derived NK1 antagonists: conformationally constrained heterocyclic bioisosteres of the ester linkage” (J Med Chem, 1995):
# pIC50: −log10 of the molar value.
# Target: Substance-P receptor (Homo sapiens, UniProt P25103)
# Experiment: Binding affinity at human Tachykinin receptor 1 expressed in CHO cells by [125 I]Trp8-substance P displacement.
# Type: cell-based
# Substance-P receptor, sequence (P25103 whole entry): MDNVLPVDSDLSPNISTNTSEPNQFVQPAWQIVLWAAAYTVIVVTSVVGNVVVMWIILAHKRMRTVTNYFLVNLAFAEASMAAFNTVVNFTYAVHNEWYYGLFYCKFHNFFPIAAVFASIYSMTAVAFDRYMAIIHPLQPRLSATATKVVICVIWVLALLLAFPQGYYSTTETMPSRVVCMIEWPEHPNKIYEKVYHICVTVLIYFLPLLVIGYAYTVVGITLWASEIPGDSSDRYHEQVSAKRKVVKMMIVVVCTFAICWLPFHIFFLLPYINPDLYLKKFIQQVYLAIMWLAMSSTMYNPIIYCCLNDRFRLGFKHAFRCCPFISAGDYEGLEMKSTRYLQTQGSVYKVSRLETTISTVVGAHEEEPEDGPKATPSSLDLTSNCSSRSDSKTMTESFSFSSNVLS
row,pIC50,SMILES
1,5.57,O=C1OC(Cc2c[nH]c3ccccc23)C(=O)N1Cc1cccc(C(F)(F)F)c1 (centres undefined)
2,6.69,O=C1CC(Cc2c[nH]c3ccccc23)C(=O)N1Cc1cc(C(F)(F)F)cc(C(F)(F)F)c1 (centres undefined)
3,7.20,CNC(=O)N1C(=O)N(Cc2cc(C(F)(F)F)cc(C(F)(F)F)c2)C(=O)C1Cc1c[nH]c2ccccc12 (centres undefined)
4,6.82,CN1C(=O)N(Cc2cc(C(F)(F)F)cc(C(F)(F)F)c2)C(=O)C1Cc1c[nH]c2ccccc12 (centres undefined)
5,6.17,Cc1cc(C)cc(CN2C(=O)OC(Cc3c[nH]c4ccccc34)C2=O)c1 (centres undefined)
6,5.13,COc1cc(CN2C(=O)OC(Cc3c[nH]c4ccccc34)C2=O)cc(OC)c1 (centres undefined)
7,7.96,CC1(Cc2c[nH]c3ccccc23)OC(=O)N(Cc2cc(C(F)(F)F)cc(C(F)(F)F)c2)C1=O (centres undefined)
8,6.40,O=C1NC(Cc2c[nH]c3ccccc23)CN(Cc2cc(C(F)(F)F)cc(C(F)(F)F)c2)C1=O (centres undefined)
9,6.66,O=C1C(Cc2c[nH]c3ccccc23)N(C(=O)Nc2ccccc2)C(=O)N1Cc1cc(C(F)(F)F)cc(C(F)(F)F)c1 (centres undefined)
10,6.50,O=C1NC(Cc2c[nH]c3ccccc23)C(=O)N1Cc1cc(C(F)(F)F)cc(C(F)(F)F)c1 (centres undefined)
11,7.51,C=CCC1(Cc2c[nH]c3ccccc23)OC(=O)N(Cc2cc(C(F)(F)F)cc(C(F)(F)F)c2)C1=O (centres undefined)
12,6.56,O=C1OC(Cc2c[nH]c3ccccc23)C(=O)N1Cc1cc(Cl)cc(Cl)c1 (centres undefined)
13,5.37,O=C1OC(Cc2c[nH]c3ccccc23)C(=O)N1Cc1cc(F)cc(F)c1 (centres undefined)
14,7.66,O=C1OC(Cc2c[nH]c3ccccc23)C(=O)N1Cc1cc(C(F)(F)F)cc(C(F)(F)F)c1 (racemic)
15,6.57,O=C1NC(Cc2c[nH]c3ccccc23)CN1Cc1cc(C(F)(F)F)cc(C(F)(F)F)c1 (centres undefined)
16,7.59,"O=C1OC(Cc2c[nH]c3ccccc23)C(=O)N1Cc1cc(C(F)(F)F)cc(C(F)(F)F)c1 (single isomer, unassigned; (-))"
17,6.51,O=C1C(Cc2c[nH]c3ccccc23)N(Cc2ccccc2)C(=O)N1Cc1cc(C(F)(F)F)cc(C(F)(F)F)c1 (centres undefined)

row,SMILES,pIC50
1,O=C1CNC(Cc2c[nH]c3ccccc23)CN1Cc1cc(C(F)(F)F)cc(C(F)(F)F)c1 (centres undefined),6.61
2,FC(F)(F)c1cc(CN2CCNC(Cc3c[nH]c4ccccc34)C2)cc(C(F)(F)F)c1 (centres undefined),6.25
